Test results published in patent publication US8614064B2, “Methods of diagnosing atherosclerosis by measuring ApoCI” (The Johns Hopkins University, priority 2003, dated 2013).

Legend:
cytochrome c = test: Cytochrome c release, Western immunoblot with densitometric scanning, ASMC; assay type: cell-based, human; settings: 24 h; ApoCI and ApoCIII 2.5 μg/mL, ApoCI-enriched HDL 1 μg apoA-I/mL
Experimental: FIGS. 5A-5C depict the effect of ApoCI, ApoCIII, ApoCI-enriched HDL, and GW4869 on cytochrome c release in ASMC. After treatment of confluent cells for 24 hours with ApoCI (2.5 μg/mL medium), ApoCIII (2.5 μg/mL medium), or ApoCI-enriched HDL (1 μg apoA-I/mL medium), the cells were lysed. The cell lysate was used as the source of cytochrome c, and the pellet was used as a source of caspase-3. The cell lysates were separated by SDS-polyacrylamide gel electrophoresis, blotted onto nitrocellulose, and cytochrome c detected using a polyclonal antibody against cytochrome c (FIG. 5A, top panel). The gels were then subjected to densitometric scanning (FIG. 5B, middle panel). In a separate experiment (FIG. 5C, right), confluent cells were grown on cover slips and pretreated with serum-free medium for 30 minutes. The cells were then incubated with control medium, ApoCI (2.5 μg/mL medium), TNF-α (20 ng/mL), or ApoCI (2.5 μg/mL)+GW4869 (20 μmol/L) for 24 hours. The cells were then washed, treated with a primary anti-cytochrome c antibody, washed with phosphate-buffered saline, and treated with a fluorescein isothiocyanate-conjugated anti-rabbit IgG (FIG. 5C, lower panel). […]

N-SMase = test: Neutral sphingomyelinase assay in treated ASMC ([14C]sphingomyelin substrate); assay type: cell-based, human
Experimental: FIGS. 3A-3C depict the effects of ApoCI, ApoCIII, TNF-α, ApoCI-enriched HDL, and ApoCI-poor HDL on the activity of N-SMase in ASMC. Confluent cultures of ASMC were preincubated for 30 minutes with serum-free (control) medium, then ApoCI (2.5 μg/mL medium), ApoCIII (2.5 μg/mL medium), TNF-α (20 ng/mL medium) (FIG. 3A, top), or ApoCI-enriched HDL (1 μg apoAI/mL medium), or ApoCI-poor HDL (5 μg apoA-I/mL medium) (FIG. 3B, middle) were added individually to cells. The cells were then incubated and harvested at the indicated time points, and the activity was of N-SMase determined using [^14C]sphingomyelin as substrate. The N-SMase activity in control cells was 22 nmol/h per milligram cell protein, and this value was considered as 100% activity. In a separate experiment (FIG. 3C bottom), cells (0.5×10^5) were seeded in P60 Petri dishes and grown in DMEM supplemented with 10% fetal bovine serum for 5 days. After preincubation of cells for 30 minutes in serum-free medium, increasing amounts of ApoCI were added. After incubation for 10 minutes, cells were harvested, and N-SMase activity was measured.
After stimulation with ApoCI ApoCI-enriched HDL and ApoCI-poor HDL, the cells were washed with 5 ml of PBS and harvested. The pellets were stored frozen at −70° C. and resuspended in 0.5 ml of buffer (100 mM Tris-HCl pH 7.4, 0.1% Triton X-100, 1 mM EDTA and protease inhibitors). The cell suspension was sonicated 3 times (3-s bursts) using a probe sonicator and centrifuged at 500×g at 4° C. for 5 min. The supernatant was used as the enzyme source. 100 μg of protein was assayed for neutral sphingomyelinase activity in a buffer consisting of 50 mM Tris-HCl, pH 7.4, 0.1% Triton X-100, 0.1 mg of bovine serum albumin, 5 mM MgCl2 and […] of [^14C]sphingomyelin (specific activity 50 mCi/mmol, from American Radiolabled Chemicals (St. Louis, Mo.). The samples were incubated at 37° C. for 2 h and terminated with the addition of 1 ml of 10% trichloroacetic acid. The precipitate was pelleted (1000×g at 4° C. for 30 min) and 1 ml of the supernatant was extracted with 1 ml of anhydrous diethyl ether. About 0.5 ml of the aqueous phase was removed for liquid scintillation counting (Ghosh, N., and Chatterjee, S. (1998) J. Biol. Chem. 264, 12554-12561).

pattern of N-SMase stimulation with time (N-SMase; ApoCIII 2.5 μg/mL, ApoCI-poor HDL 5 μg apoA-I/mL, time course to 60 min)	increase in the activity of N-SMase at 5 minutes (N-SMase; 5 min, ApoCI 2.5 μg/mL, TNF-α 20 ng/mL, ApoCI-enriched HDL 1 μg apoA-I/mL, control 22 nmol/h per mg protein = 100%)	Substance	stimulation of the release of cytochrome c (cytochrome c)	maximum increase in N-SMase activity, concentration dependence (FIG. 3C) (N-SMase; ApoCI 2.5 μg/mL medium, 10 min incubation)
Such a pattern was not seen		ApoCIII: purified human ApoCIII purchased from Academy Bio-Medical Company, used as negative control	2.3 fold	
	~2 fold	Apolipoprotein C-I (TPDVSSALDKLKEFGNTLEDKARELISRIKQSELSAKMREWFSETFQKVKEKLKIDS; UniProt P02654 27-83, looked up) [ApoCI, 6.6-kDa single-chain plasma protein of 57 amino acids; purified human ApoCI purchased from Academy Bio-Medical Company]	4.1 fold	1.5 fold
